For five compounds, IC50 and GI50 results are on record in ChEMBL document CHEMBL3621100, “Discovery of Novel Class I Histone Deacetylase Inhibitors with Promising in Vitro and in Vivo Antitumor Activities” (J Med Chem, 2015).

Some results are limits rather than exact numbers.

For data set [1], the target named is Histone deacetylase 2 (Homo sapiens, UniProt Q92769). The data set is described as follows: Inhibition of recombinant human HDAC2 after 60 mins by fluorescence assay.
The target of data set [2] is Histone deacetylase 3 (Homo sapiens, UniProt O15379). The data set is described as follows: Inhibition of recombinant human HDAC3 after 60 mins by fluorescence assay.
Data set [3] deals with T1, Histone deacetylase 8 (Homo sapiens, UniProt Q9BY41).
T1 sequence (Q9BY41 whole entry): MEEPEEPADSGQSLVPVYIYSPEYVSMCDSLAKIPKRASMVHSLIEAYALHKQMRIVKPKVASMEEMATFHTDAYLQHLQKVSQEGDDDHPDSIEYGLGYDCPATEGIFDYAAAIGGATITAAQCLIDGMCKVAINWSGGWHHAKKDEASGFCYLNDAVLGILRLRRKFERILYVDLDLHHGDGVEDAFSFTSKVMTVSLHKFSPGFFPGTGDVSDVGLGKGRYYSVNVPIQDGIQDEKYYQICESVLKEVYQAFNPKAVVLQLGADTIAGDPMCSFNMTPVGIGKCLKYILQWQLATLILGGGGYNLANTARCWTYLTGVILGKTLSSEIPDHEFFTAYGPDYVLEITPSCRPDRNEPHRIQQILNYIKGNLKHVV
The data set is described as follows: Inhibition of recombinant human HDAC8 after 60 mins by fluorescence assay.

The target of data set [4] is Histone deacetylase 5 (Homo sapiens, UniProt Q9UQL6). The data set is described as follows: Inhibition of recombinant human HDAC5 after 60 mins by fluorescence assay.
Data set [5] has as its target Histone deacetylase 9 (Homo sapiens, UniProt Q9UKV0). The data set is described as follows: Inhibition of recombinant human HDAC9 after 60 mins by fluorescence assay.
Data set [6] addresses T2, Protein deacetylase HDAC6 (Homo sapiens, UniProt Q9UBN7).
T2 sequence (Q9UBN7 whole entry): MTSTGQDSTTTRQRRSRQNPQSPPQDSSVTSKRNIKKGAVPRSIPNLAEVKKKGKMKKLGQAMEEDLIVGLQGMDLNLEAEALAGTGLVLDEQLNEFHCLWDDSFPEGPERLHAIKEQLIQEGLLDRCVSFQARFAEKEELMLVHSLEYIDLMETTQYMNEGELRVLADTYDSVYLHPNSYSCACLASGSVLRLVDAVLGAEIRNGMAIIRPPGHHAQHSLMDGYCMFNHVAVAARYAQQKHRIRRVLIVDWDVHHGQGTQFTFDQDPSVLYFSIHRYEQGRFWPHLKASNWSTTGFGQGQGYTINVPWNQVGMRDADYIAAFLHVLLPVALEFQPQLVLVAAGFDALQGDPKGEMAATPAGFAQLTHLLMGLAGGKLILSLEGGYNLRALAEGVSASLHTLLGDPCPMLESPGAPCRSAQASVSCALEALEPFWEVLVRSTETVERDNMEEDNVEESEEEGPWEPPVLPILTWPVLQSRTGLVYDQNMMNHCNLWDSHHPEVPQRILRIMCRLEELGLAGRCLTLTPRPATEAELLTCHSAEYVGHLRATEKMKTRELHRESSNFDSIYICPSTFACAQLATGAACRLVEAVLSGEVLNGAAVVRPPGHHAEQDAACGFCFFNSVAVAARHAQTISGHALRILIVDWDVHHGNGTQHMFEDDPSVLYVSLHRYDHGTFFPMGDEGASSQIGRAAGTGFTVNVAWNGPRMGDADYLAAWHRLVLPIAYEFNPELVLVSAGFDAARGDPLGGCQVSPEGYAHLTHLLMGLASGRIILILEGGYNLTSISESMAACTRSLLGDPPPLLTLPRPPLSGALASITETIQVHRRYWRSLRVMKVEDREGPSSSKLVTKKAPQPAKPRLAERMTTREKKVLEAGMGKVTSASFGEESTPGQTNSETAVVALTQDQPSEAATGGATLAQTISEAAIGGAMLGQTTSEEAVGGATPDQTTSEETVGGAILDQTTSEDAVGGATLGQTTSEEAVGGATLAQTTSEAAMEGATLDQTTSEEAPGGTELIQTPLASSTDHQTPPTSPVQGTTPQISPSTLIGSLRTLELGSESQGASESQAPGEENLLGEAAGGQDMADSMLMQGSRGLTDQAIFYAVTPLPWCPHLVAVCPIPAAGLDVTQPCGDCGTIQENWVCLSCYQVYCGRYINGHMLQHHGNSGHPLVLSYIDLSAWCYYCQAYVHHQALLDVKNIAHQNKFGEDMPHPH
The data set is described as follows: Inhibition of recombinant human HDAC6 after 60 mins by fluorescence assay.

The target in data set [7] is T3, Polyamine deacetylase HDAC10 (Homo sapiens, UniProt Q969S8).
T3 sequence (Q969S8 whole entry): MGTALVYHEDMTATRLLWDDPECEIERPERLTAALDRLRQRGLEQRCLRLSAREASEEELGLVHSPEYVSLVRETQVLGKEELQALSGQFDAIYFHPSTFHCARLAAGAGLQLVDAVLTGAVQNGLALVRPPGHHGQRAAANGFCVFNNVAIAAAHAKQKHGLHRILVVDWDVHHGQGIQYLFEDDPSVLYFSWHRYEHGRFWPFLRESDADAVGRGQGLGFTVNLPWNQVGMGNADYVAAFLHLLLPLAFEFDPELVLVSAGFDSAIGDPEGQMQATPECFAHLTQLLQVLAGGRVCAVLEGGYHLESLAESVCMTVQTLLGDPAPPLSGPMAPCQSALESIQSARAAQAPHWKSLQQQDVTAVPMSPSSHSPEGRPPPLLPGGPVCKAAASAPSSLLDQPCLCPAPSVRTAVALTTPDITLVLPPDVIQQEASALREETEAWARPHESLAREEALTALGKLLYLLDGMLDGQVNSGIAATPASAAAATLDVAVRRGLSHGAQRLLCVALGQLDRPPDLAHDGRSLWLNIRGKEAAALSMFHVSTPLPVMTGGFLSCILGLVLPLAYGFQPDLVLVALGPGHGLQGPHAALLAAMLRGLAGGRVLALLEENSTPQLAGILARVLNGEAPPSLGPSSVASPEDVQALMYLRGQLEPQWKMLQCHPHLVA
The data set is described as follows: Inhibition of recombinant human HDAC10 after 60 mins by fluorescence assay.

Data set [8] addresses T4, Histone deacetylase 11 (Homo sapiens, UniProt Q96DB2).
T4 sequence (Q96DB2 whole entry): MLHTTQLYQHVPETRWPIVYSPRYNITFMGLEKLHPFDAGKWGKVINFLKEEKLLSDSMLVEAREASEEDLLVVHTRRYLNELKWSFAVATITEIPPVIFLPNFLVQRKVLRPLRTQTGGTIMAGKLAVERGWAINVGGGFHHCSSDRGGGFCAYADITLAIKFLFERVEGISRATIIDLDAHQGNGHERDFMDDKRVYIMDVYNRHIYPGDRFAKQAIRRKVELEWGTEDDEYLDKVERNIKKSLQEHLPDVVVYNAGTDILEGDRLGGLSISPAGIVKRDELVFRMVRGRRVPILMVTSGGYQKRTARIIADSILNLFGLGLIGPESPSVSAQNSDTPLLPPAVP
The data set is described as follows: Inhibition of recombinant human HDAC11 after 60 mins by fluorescence assay.

The test system of data set [9] is DU-145. The data set is described as follows: Antiproliferative activity against human DU145 cells after 72 hrs by CCK8 assay. The following applies: Homo sapiens, DU-145, 72 h. The class given is functional.
Data set [10] is described as follows: Antiproliferative activity against human WI38 cells after 72 hrs by CCK8 assay. The class given is cell-based, WI-38. For orientation: Tetrazolium assays rely on reduction of a dye to a coloured formazan, in cell work by metabolically active cells.

Chain of Histone deacetylase 5 (Q9UQL6 whole entry): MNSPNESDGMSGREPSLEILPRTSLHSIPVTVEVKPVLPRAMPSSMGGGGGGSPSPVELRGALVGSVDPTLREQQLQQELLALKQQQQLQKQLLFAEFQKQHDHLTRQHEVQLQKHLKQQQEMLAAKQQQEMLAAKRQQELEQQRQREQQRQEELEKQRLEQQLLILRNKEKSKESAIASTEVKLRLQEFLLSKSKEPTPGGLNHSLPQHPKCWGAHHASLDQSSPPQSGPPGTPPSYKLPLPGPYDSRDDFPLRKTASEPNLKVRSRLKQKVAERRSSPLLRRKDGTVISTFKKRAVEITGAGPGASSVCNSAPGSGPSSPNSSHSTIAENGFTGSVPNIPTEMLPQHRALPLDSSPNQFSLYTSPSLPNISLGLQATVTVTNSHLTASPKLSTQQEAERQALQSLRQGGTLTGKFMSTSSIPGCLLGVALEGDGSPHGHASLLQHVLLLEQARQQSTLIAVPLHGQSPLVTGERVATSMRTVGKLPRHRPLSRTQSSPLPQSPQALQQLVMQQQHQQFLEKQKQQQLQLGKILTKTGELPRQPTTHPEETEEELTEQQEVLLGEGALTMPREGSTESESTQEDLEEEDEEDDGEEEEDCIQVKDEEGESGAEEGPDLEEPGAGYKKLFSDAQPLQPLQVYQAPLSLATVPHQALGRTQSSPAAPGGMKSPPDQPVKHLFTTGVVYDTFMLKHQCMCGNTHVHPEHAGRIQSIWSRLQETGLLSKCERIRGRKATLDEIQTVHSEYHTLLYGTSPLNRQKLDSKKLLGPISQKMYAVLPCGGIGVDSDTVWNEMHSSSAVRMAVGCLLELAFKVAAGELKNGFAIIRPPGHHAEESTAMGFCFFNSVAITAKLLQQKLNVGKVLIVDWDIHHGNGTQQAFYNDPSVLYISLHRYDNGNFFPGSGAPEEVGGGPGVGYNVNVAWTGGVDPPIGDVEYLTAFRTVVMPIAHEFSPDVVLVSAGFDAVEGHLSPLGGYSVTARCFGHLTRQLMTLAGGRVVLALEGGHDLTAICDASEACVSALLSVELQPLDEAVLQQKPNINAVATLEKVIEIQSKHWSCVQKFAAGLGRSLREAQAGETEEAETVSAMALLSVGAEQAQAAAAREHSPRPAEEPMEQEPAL
Chain of Histone deacetylase 2 (Q92769 whole entry): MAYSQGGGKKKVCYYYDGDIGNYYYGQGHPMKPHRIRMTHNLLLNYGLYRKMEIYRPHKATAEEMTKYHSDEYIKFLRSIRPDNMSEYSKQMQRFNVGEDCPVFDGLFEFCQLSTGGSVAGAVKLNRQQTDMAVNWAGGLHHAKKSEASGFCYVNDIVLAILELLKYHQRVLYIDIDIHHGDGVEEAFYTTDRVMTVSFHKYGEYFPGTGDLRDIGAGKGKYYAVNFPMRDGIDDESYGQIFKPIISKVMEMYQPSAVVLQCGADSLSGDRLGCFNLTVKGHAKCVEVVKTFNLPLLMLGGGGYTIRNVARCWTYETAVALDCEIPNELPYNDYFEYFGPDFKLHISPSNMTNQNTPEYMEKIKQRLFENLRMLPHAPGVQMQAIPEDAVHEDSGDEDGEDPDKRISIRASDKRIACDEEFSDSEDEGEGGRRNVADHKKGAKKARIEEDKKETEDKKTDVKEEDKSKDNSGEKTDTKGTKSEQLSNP
Chain of Histone deacetylase 3 (O15379 whole entry): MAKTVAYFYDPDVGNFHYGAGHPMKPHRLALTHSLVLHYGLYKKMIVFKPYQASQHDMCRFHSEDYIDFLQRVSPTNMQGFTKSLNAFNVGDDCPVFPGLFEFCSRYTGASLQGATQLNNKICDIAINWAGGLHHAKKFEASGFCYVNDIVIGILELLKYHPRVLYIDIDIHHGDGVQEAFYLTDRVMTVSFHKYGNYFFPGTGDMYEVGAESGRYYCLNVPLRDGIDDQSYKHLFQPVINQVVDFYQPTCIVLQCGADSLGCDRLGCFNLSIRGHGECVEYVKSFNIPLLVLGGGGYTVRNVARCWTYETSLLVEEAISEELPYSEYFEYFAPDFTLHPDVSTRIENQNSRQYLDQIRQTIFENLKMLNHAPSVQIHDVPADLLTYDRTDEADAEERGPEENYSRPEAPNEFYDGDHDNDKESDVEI
Chain of Histone deacetylase 9 (Q9UKV0 whole entry): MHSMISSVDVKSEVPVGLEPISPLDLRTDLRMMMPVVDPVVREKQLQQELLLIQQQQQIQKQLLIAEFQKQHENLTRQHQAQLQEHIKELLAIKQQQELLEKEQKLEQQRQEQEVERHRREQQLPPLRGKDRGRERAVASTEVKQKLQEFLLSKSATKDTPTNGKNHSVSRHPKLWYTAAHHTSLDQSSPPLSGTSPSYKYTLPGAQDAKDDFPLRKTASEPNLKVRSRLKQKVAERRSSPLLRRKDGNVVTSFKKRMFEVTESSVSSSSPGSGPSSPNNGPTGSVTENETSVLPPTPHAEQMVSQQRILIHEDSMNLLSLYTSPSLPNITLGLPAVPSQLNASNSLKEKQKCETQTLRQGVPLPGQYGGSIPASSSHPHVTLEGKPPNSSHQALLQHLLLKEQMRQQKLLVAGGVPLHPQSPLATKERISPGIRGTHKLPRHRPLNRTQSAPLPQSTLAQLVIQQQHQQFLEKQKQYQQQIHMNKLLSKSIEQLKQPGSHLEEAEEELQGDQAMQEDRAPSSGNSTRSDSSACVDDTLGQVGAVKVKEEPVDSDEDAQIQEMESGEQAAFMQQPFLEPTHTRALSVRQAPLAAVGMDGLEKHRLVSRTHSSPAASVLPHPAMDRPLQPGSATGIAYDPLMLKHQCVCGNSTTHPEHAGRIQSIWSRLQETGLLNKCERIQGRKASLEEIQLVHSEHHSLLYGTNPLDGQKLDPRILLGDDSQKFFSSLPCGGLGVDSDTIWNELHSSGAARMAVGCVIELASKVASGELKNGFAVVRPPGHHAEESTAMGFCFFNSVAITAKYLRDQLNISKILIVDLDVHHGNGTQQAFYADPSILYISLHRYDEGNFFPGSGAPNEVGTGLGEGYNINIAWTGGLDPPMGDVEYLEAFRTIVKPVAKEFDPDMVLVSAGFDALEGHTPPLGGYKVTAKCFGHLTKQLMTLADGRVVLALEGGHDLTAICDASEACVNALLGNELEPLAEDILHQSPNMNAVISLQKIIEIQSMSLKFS

For `C/C=C1\NC(=O)c2csc(n2)[C@@H](C(C)C)NC(=O)C[C@@H](/C=C/CCS)OC(=O)[C@H](C(C)C)NC1=O`, the IC50 in data set [1] is 36.6 nM; in data set [2] it was 9.77 nM; in data set [3] it was 2550 nM; in data set [4], above 10000 nM; in [5], above 10000 nM; in data set [6], 459 nM. Also, the IC50 in data set [7] was 138 nM; in data set [8], above 10000 nM.
For the compound `C/C=C1\NC(=O)c2csc(n2)CNC(=O)C[C@@H](/C=C/CCSC(C)=O)OC(=O)[C@H](C(C)C)NC1=O`, the IC50 in data set [1] is 328 nM; in data set [2], 73 nM; in [3], above 10000 nM; in data set [4], above 10000 nM; in data set [5] it was above 10000 nM; in data set [6], 4630 nM. For the same compound, the results for the concentration for half-maximal inhibition (IC50) in data set [7] and in data set [8] were 751 nM and above 10000 nM, respectively. Besides, the GI50 in data set [9] is 11 nM. This compound also gave a GI50 at 72 h in [10] of 258 nM.
For the compound `C/C=C1\NC(=O)c2csc(n2)CNC(=O)C[C@@H](/C=C/CCSC(=O)CCCCCCC)OC(=O)[C@H](C(C)C)NC1=O`, the IC50 in data set [1] is 2710 nM; in data set [2], 1680 nM; in data set [3] it was above 10000 nM; in data set [4], above 10000 nM; in [5], above 10000 nM; in data set [6], 6950 nM. Moreover, the figures for the IC50 in data set [7] and in [8] were 1930 nM and above 10000 nM, respectively. Besides, in data set [9], the GI50 was determined as 6.99 nM. In data set [10], this compound had a GI50 at 72 h of 157 nM.
Consider `C/C=C1\NC(=O)c2csc(n2)CNC(=O)C[C@@H](/C=C/CCS)OC(=O)[C@H](C(C)C)NC1=O`, for which the IC50 is 45 nM in data set [1]; 7.67 nM in data set [2]; 3550 nM in [3]; above 10000 nM in data set [4]; above 10000 nM in data set [5]; 331 nM in data set [6]. Also, the half-maximal inhibitory concentration (IC50) was 37.4 nM in data set [7] and above 10000 nM in data set [8].
For `C/C=C1\NC(=O)c2csc(n2)[C@@H](C(C)C)NC(=O)C[C@@H](/C=C/CCSC(=O)CCCCCCC)OC(=O)[C@H](C(C)C)NC1=O`, the IC50 in [1] was 2740 nM; in data set [2] it was 3150 nM; in data set [3] it was above 10000 nM; in data set [4], above 10000 nM; in data set [5], above 10000 nM; in data set [6], above 10000 nM. For the same compound, the values for the IC50 in [7] and in data set [8] were 395 nM and above 10000 nM, respectively. In [9], this compound had a GI50 of 20.5 nM. The same compound displayed a GI50 at 72 h in [10] of 561 nM.

For orientation: IC50 means the concentration needed to halve the response being measured. The term GI50 denotes the concentration that inhibits growth by half. A high value points to lower sensitivity of the cells.
